Data as given in patent publication US11633459B2, “GIP derivatives and uses thereof” (priority 2018, dated 2023).
*1 amine or outer side, *2 acyl side, *3 side chain or, on linkers, in order; H or OH if unused. Where a SMILES comes first, the peptide text is derived from it. Where no end group is shown, it is not given here. Side-chain parts run from the residue outwards. [ ]: non-standard residue; d: D form. The star is where a group is joined. X1 = O=C(O)CCCCCCCCCCCCCCCCCCC(=O)NCC1CCC(C(=O)*)CC1; C18 diacid = O=C(O)CCCCCCCCCCCCCCCCC(=O)*; γGlu = O=C(O)[C@H](CCC(=O)[*:2])N[*:1]; Nle = CCCC[C@H](N)C(=O)O; AEEA = NCCOCCOCC(=O)O; Aib = CC(C)(N)C(=O)O

Target: T1, human GIP receptor (Homo sapiens, UniProt P48546)
T1 construct: expressed in transfected cells; host or cells: BHK cells (parent line BHKTS13), clone BHK CRE luc2P hGIPR clone #5
T1 sequence (P48546 22-466): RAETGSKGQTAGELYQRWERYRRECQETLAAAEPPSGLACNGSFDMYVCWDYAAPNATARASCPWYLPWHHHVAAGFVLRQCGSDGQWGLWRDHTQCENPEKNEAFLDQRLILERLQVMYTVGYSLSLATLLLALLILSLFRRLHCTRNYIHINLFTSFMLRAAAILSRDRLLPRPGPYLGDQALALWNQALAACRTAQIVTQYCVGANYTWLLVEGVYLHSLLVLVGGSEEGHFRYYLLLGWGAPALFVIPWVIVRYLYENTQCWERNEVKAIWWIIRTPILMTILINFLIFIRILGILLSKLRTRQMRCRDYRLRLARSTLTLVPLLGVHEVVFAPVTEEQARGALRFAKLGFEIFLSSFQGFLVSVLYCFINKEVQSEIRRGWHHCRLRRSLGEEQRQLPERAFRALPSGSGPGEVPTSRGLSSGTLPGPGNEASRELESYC
Assay: In vitro potency, CRE luciferase reporter gene assay, whole BHK cells expressing human GIP receptor
Format: cell-based
Conditions: 0.2% HSA
Protocol: In Vitro Potency (CRE Luciferase; Whole Cells)
The in vitro potency is the measure of human GIP, GLP-1 or glucagon receptor activation, respectively, in a whole cell assay.
In vitro potency was determined by measuring the response of the human GIP, GLP-1 or glucagon receptor in a reporter gene assay in individual cell lines. […] When the respective receptor is activated it results in the production of cAMP, which in turn results in the luciferase protein being expressed. When assay incubation is completed the luciferase substrate (luciferin) is added and the enzyme converts luciferin to oxyluciferin to produce bioluminescence. The luminescence is measured as the readout for the assay.
The cells were derived from a clone containing the CRE luciferase element and were established by further transfection with the respective receptor to obtain the current clone.
The cells were cultured at 5% CO2 in Cell Culture Medium. They were aliquoted and stored in liquid nitrogen. The cells were kept in passage and were seeded out the day before each assay.
The Assay Buffer consisted of 1% ovalbumin and 0.1% Pluronic F-68 in Assay Medium with the addition of human serum albumin at twice the indicated concentrations.
1) Cells were plated at 5000 cells/well and incubated overnight.
2) Cells were washed three times in PBS.
3) Assay Medium (50 μl aliquot) with or without serum albumin was added to each well in the assay plate.
4) Stocks of the test compounds and reference compounds were diluted to a concentration of 0.2 μM in Assay Buffer. […] 8) The cells were washed three times with PBS plus some liquid in each well. 9) A 100 μl aliquot of steadylite plus reagent was added to each well of the assay plate (reagent was light sensitive). 10) Each assay plate was covered with aluminum foil to protect it from light and shaken for 30 min at room temperature. 11) Each assay plate was read in a microtiter plate reader. Calculations and Results
The data from the microtiter plate reader was transferred to GraphPad Prism software. The software performs a non-linear regression (log(agonist) vs response).
A minimum of two replicates was measured for each sample. The reported values are averages of the replicates.

Molecule	EC50
CCCC[C@H](NC(=O)[C@H](C)NC(=O)[C@@H](NC(=O)[C@H](CO)NC(=O)[C@H](Cc1ccc(O)cc1)NC(=O)[C@H](CC(=O)O)NC(=O)[C@H](CO)NC(=O)[C@@H](NC(=O)[C@H](Cc1ccccc1)NC(=O)[C@@H](NC(=O)CNC(=O)[C@H](CCC(=O)O)NC(=O)C(C)(C)NC(=O)[C@@H](N)Cc1ccc(O)cc1)[C@@H](C)O)[C@@H](C)CC)[C@@H](C)CC)C(=O)N[C@@H](CC(=O)O)C(=O)N[C@@H](C)C(=O)N[C@H](C(=O)N[C@@H](CCCNC(=N)N)C(=O)N[C@@H](CCC(N)=O)C(=O)N[C@@H](CCC(N)=O)C(=O)N[C@@H](CC(=O)O)C(=O)N[C@@H](Cc1ccccc1)C(=O)N[C@H](C(=O)N[C@@H](CCCCNC(=O)CC[C@H](NC(=O)CC[C@H](NC(=O)CC[C@H](NC(=O)C1CCC(CNC(=O)CCCCCCCCCCCCCCCCCCC(=O)O)CC1)C(=O)O)C(=O)O)C(=O)O)C(=O)N[C@@H](Cc1c[nH]c2ccccc12)C(=O)N[C@@H](CC(C)C)C(=O)N[C@@H](CC(C)C)C(=O)N[C@@H](C)C(=O)N[C@@H](CCC(N)=O)C(=O)N[C@@H](CCCCN)C(=O)NCC(=O)O)C(C)C)[C@@H](C)CC (stereo partly drawn) [Compound 14, N{Epsilon-24}-[(4S)-4-carboxy-4-[[(4S)-4-carboxy-4-[[(4S)-4-carboxy-4-[[4-[(19-carboxynonadecanoylamino)methyl]cyclohexanecarbonyl]amino]butanoyl]amino]-butanoyl]amino]butanoyl]-[Aib2,Nle14,Ala16,Arg18,Lys24]-hGIP(1-31)] (H-Y[Aib]EGTFISDYSIA[Nle]DAIRQQDFVK([γGlu-γGlu-γGlu-X1])WLLAQKG-OH)	266 pM
CCCC[C@H](NC(=O)[C@H](C)NC(=O)[C@@H](NC(=O)[C@H](CO)NC(=O)[C@H](Cc1ccc(O)cc1)NC(=O)[C@H](CC(=O)O)NC(=O)[C@H](CO)NC(=O)[C@@H](NC(=O)[C@H](Cc1ccccc1)NC(=O)[C@@H](NC(=O)CNC(=O)[C@H](CCC(=O)O)NC(=O)C(C)(C)NC(=O)[C@@H](N)Cc1ccc(O)cc1)[C@@H](C)O)[C@@H](C)CC)[C@@H](C)CC)C(=O)N[C@@H](CC(=O)O)C(=O)N[C@@H](CCCCN)C(=O)N[C@H](C(=O)N[C@@H](Cc1c[nH]cn1)C(=O)N[C@@H](CCC(N)=O)C(=O)N[C@@H](CCC(=O)O)C(=O)N[C@@H](CC(=O)O)C(=O)N[C@@H](Cc1ccccc1)C(=O)N[C@H](C(=O)N[C@@H](CCCCNC(=O)CC[C@H](NC(=O)CC[C@H](NC(=O)CC[C@H](NC(=O)CC[C@H](NC(=O)C1CCC(CNC(=O)CCCCCCCCCCCCCCCCCCC(=O)O)CC1)C(=O)O)C(=O)O)C(=O)O)C(=O)O)C(=O)N[C@@H](Cc1c[nH]c2ccccc12)C(=O)N[C@@H](CC(C)C)C(=O)N[C@@H](CC(C)C)C(=O)N[C@@H](C)C(=O)N[C@@H](CCC(N)=O)C(=O)N[C@@H](CCCCN)C(=O)NCC(=O)O)C(C)C)[C@@H](C)CC (stereo partly drawn) [Compound 21, N{Epsilon-24}-[(4S)-4-carboxy-4-[[(4S)-4-carboxy-4-[[(4S)-4-carboxy-4-[[(4S)-4-carboxy-4-[[4-[(19-carboxynonadecanoylamino)methyl]cyclohexanecarbonyl]amino]butanoyl]-amino]butanoyl]amino]butanoyl]amino]butanoyl]-[Aib2,Nle14,Glu20,Lys24]-hGIP(1-31)] (H-Y[Aib]EGTFISDYSIA[Nle]DKIHQEDFVK([γGlu-γGlu-γGlu-γGlu-X1])WLLAQKG-OH)	810 pM
H-Y[Aib]EGTFISDYSIALDKIHQQDFVK([AEEA-AEEA-γGlu-C18 diacid])WLLAQKGKKNDWKHNITQ [Compound 45, N{Epsilon-24}-[2-[2-[2-[[2-[2-[2-[[(4S)-4-carboxy-4-(17-carboxyheptadecanoylamino)butanoyl]amino]ethoxy]ethoxy]acetyl]amino]ethoxy]ethoxy]acetyl]-[Aib2,Leu14,Lys24]-hGIP]	56 pM

Stronger by EC50, values ahead:

EC50	Molecule
14 pM	CCCC[C@H](NC(=O)[C@H](C)NC(=O)[C@@H](NC(=O)[C@H](CO)NC(=O)[C@H](Cc1ccc(O)cc1)NC(=O)[C@H](CC(=O)O)NC(=O)[C@H](CO)NC(=O)[C@@H](NC(=O)[C@H](Cc1ccccc1)NC(=O)[C@@H](NC(=O)CNC(=O)[C@H](CCC(=O)O)NC(=O)C(C)(C)NC(=O)[C@@H](N)Cc1ccc(O)cc1)[C@@H](C)O)[C@@H](C)CC)[C@@H](C)CC)C(=O)N[C@@H](CC(=O)O)C(=O)N[C@@H](CCCCN)C(=O)N[C@H](C(=O)N[C@@H](CCCNC(=N)N)C(=O)N[C@@H](CCC(N)=O)C(=O)N[C@@H](CCC(N)=O)C(=O)N[C@@H](CC(=O)O)C(=O)N[C@@H](Cc1ccccc1)C(=O)N[C@H](C(=O)N[C@@H](CCCCNC(=O)COCCOCCNC(=O)COCCOCCNC(=O)CC[C@H](NC(=O)C1CCC(CNC(=O)CCCCCCCCCCCCCCCCCCC(=O)O)CC1)C(=O)O)C(=O)N[C@@H](Cc1c[nH]c2ccccc12)C(=O)N[C@@H](CC(C)C)C(=O)N[C@@H](CC(C)C)C(=O)N[C@@H](C)C(=O)N[C@@H](CCC(N)=O)C(=O)N[C@@H](CCCCN)C(=O)NCC(=O)N[C@@H](CCCCN)C(=O)N[C@@H](CCC(=O)O)C(=O)N[C@@H](CCC(=O)O)C(=O)N[C@@H](CC(=O)O)C(=O)N[C@@H](Cc1c[nH]c2ccccc12)C(=O)N[C@@H](CCCCN)C(=O)N[C@@H](Cc1c[nH]cn1)C(=O)N[C@@H](CC(N)=O)C(=O)N[C@H](C(=O)N[C@H](C(=O)N[C@@H](CCC(N)=O)C(=O)O)[C@@H](C)O)[C@@H](C)CC)C(C)C)[C@@H](C)CC (stereo partly drawn) [Compound 41, N{Epsilon-24}-[2-[2-[2-[[2-[2-[2-[[(4S)-4-carboxy-4-[[4-[(19-carboxynonadecanoyl-amino)methyl]cyclohexanecarbonyl]amino]butanoyl]amino]ethoxy]ethoxy]acetyl]amino]ethoxy]ethoxy]acetyl]-[Aib2,Nle14,Arg18,Lys24,Glu33,Glu34]-hGIP]
22 pM	CCCC[C@H](NC(=O)[C@H](C)NC(=O)[C@@H](NC(=O)[C@H](CO)NC(=O)[C@H](Cc1ccc(O)cc1)NC(=O)[C@H](CC(=O)O)NC(=O)[C@H](CO)NC(=O)[C@@H](NC(=O)[C@H](Cc1ccccc1)NC(=O)[C@@H](NC(=O)CNC(=O)[C@H](CCC(=O)O)NC(=O)C(C)(C)NC(=O)[C@@H](N)Cc1ccc(O)cc1)[C@@H](C)O)[C@@H](C)CC)[C@@H](C)CC)C(=O)N[C@@H](CC(=O)O)C(=O)N[C@@H](CCCCN)C(=O)N[C@H](C(=O)N[C@@H](CCCNC(=N)N)C(=O)N[C@@H](CCC(N)=O)C(=O)N[C@@H](CCC(N)=O)C(=O)N[C@@H](CC(=O)O)C(=O)N[C@@H](Cc1ccccc1)C(=O)N[C@H](C(=O)N[C@@H](CCCCNC(=O)CC[C@H](NC(=O)CC[C@H](NC(=O)CC[C@H](NC(=O)C1CCC(CNC(=O)CCCCCCCCCCCCCCCCCCC(=O)O)CC1)C(=O)O)C(=O)O)C(=O)O)C(=O)N[C@@H](Cc1c[nH]c2ccccc12)C(=O)N[C@@H](CC(C)C)C(=O)N[C@@H](CC(C)C)C(=O)N[C@@H](C)C(=O)N[C@@H](CCC(N)=O)C(=O)N[C@@H](CCCCN)C(=O)NCC(=O)N[C@@H](CCCCN)C(=O)N[C@@H](CCC(=O)O)C(=O)N[C@@H](CCC(=O)O)C(=O)N[C@@H](CC(=O)O)C(=O)N[C@@H](Cc1c[nH]c2ccccc12)C(=O)N[C@@H](CCCCN)C(=O)N[C@@H](Cc1c[nH]cn1)C(=O)N[C@@H](CC(N)=O)C(=O)N[C@H](C(=O)N[C@H](C(=O)N[C@@H](CCC(N)=O)C(=O)O)[C@@H](C)O)[C@@H](C)CC)C(C)C)[C@@H](C)CC (stereo partly drawn) [Compound 42, N{Epsilon-24}-[(4S)-4-carboxy-4-[[(4S)-4-carboxy-4-[[(4S)-4-carboxy-4-[[4-[(19-carboxynonadecanoylamino)methyl]cyclohexanecarbonyl]amino]butanoyl]amino]butanoyl]amino]butanoyl]-[Aib2,Nle14,Arg18,Lys24,Glu33,Glu34]-hGIP]
